According to patent publication US20030133913A1, “Methods of maturing plasmacytoid dendritic cells using immune response modifier molecules” (3M Innovative Properties Company, priority 2001, published 2003):

System: plasmacytoid dendritic cells
Test: Enhanced survival of isolated pDCs, cell viability by flow cytometry
Format: cell-based, human
Settings: 48 hours after treatment with IRM (3 μM) versus without IRM; FIG. 4
Description: Human pDCs were isolated from PBMC by immunomagnetic bead positive selection according to the manufacturer's instructions (Miltenyi Biotec, Inc., Auburn, Calif.). Briefly, PBMC were incubated with pDC-specific antibodies, BDCA-2 or BDCA-4, and the labeled cells were collected with a Miltenyi LS column. The positively selected cells were resuspended in X-Vivo 20 medium. Isolated pDCs were obtained as described in Example 2. The isolated pDCs were incubated in with and without IRM. Cell viability was measured in both cultures by flow cytometry after 24 hours and again after 48 hours. […] Pairwise comparisons of IRM-treated cells to the control group were performed using the Dunnett adjustment to preserve the overall 0.05 level of significance. If there were discrepancies between the 2 methods, the results from the arcsin transformed data were reported.

CCOCc1nc2c(N)nc3ccccc3c2n1CC(C)(C)O [IRM, 4-amino-2-ethoxymethyl-α,α-dimethyl-1H-imidazo[4,5-c]quinoline-1-ethanol]
pDC survival (percent viable): statistically significant higher rate of survival
